For one series, the target named is T1, Adenosine receptor A1 (Rattus norvegicus, UniProt P25099).
T1 sequence (P25099 whole entry): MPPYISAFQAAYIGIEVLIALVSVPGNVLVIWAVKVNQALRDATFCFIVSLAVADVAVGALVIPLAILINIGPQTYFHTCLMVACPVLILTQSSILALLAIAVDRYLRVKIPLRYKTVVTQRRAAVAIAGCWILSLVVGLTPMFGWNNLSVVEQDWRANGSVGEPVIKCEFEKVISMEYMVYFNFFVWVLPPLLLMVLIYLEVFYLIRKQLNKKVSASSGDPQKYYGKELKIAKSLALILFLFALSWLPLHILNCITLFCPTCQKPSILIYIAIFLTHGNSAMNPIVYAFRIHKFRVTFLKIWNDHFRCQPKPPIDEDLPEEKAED
The experiment in a line: Antagonism of binding of 1 nM [3H]cyclohexyladenosine to adenosine A1 receptors on rat cortical membranes. It counts as cell membranes, Membrane.

In series [1] the target is T2, Adenosine receptor A2a (Cavia porcellus, UniProt P46616).
T2 sequence (P46616 whole entry): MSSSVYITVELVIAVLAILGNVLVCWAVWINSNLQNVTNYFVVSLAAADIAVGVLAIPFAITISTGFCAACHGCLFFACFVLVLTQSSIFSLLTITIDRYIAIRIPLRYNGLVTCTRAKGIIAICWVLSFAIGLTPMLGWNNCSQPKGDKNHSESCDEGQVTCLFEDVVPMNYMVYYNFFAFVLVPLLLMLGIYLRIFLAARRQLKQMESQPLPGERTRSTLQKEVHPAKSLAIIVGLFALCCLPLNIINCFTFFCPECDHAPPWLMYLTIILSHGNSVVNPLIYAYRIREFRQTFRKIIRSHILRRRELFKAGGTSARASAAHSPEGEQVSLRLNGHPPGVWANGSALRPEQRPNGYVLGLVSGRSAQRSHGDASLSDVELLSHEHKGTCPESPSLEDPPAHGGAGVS
Description: Antagonism of cyclic [3H]AMP accumulation in guinea pig cerebral cortical slices (elicited by 15 uM 2-chloroadenosine at adenosine A2 receptor)
Series [2] concerns the target T2, Adenosine receptor A2a. Put plainly: Antagonism of cyclic [3H]AMP accumulation elicited by 15 uM 2-chloroadenosine in [3H]adenine-labeled guinea pig cerebral cortical slices at A2 receptor. It counts as functional.
A short description of series [3]: Solubility in water. It counts as physicochemical. Conditions: read-out: S.

Each structure is given as a SMILES string. Values after ≈ are worked out from the molar mass of the structure shown. Some results are limits rather than exact numbers.

Usually Ki stands for a measure of affinity in units of concentration, obtained from inhibition or displacement. A low value points to higher affinity. Consider `Cn1c(=O)c2[nH]c(-c3ccccc3O)nc2n(C)c1=O`, for which the Ki at Adenosine receptor A1 is 750 nM; at Adenosine receptor A2a [1], 1700 nM. The corresponding values for `CCCn1c(=O)c2[nH]c(-c3ccc(S(=O)(=O)O)cc3)nc2n(CCC)c1=O` are 210 nM and 710 nM. As usually defined, the EC50 is the concentration giving half of the maximal effect. `Nc1nc(Cl)nc2c1ncn2[C@@H]1O[C@H](CO)[C@@H](O)[C@H]1O` showed an EC50 at Adenosine receptor A2a [2] of 8 µM. This counts as single-digit micromolar. Take `CC(C)CCn1c(=O)c2[nH]cnc2n(CC(C)C)c1=O`: the Ki at Adenosine receptor A1 was 13000 nM; at Adenosine receptor A2a [1], above 150000 nM. The corresponding values for `Cn1c(=O)c2nc(-c3ccccc3N)[nH]c2n(C)c1=O` are 850 nM and 1700 nM. On to `Cn1c(=O)c2[nH]c(-c3ccccc3)nc2n(C)c1=O` [8-PHENYL THEOPHYLLINE], for which, at Adenosine receptor A2a [1], affinity was put at a Ki of 550 nM. In other words, the sub-micromolar range. As for `Cn1c(=O)c2[nH]c(-c3ccc(S(=O)(=O)O)cc3)nc2n(C)c1=O`, at Adenosine receptor A2a [1], the inhibition constant (Ki) worked out at 6300 nM. Also, the solubility in series [3] is above 20000 µM. Take `Cn1c(=O)c2[nH]c(-c3ccc(N)cc3)nc2n(C)c1=O`: the inhibitory constant (Ki) was determined as 230 nM at Adenosine receptor A1 and 130 nM on Adenosine receptor A2a [1]. As to `CC(C)CCn1c(=O)c2nc(-c3ccccc3)[nH]c2n(CC(C)C)c1=O`, the inhibitory constant (Ki) was 1800 nM at Adenosine receptor A1 and above 10000 nM on Adenosine receptor A2a [1]. For the same molecule, the solubility in series [3] was 10 µM (≈ 3.54 µg/mL).

On to `Cn1c(=O)c2c(nc(-c3ccccc3)n2C)n(C)c1=O`, for which the Ki at Adenosine receptor A1 was determined as 17000 nM; at Adenosine receptor A2a [1], 27000 nM.

Take `CCCn1c(=O)c2nc(-c3ccc(O)cc3)[nH]c2n(CCC)c1=O`: the Ki at Adenosine receptor A1 is 2.9 nM; at Adenosine receptor A2a [1], 50 nM. With `Cn1c(=O)c2[nH]c(-c3cccc(O)c3)nc2n(C)c1=O`, the Ki at Adenosine receptor A1 worked out at 340 nM; on Adenosine receptor A2a [1], 1000 nM. With `Cn1c(=O)c2nc(-c3ccc(O)cc3)[nH]c2n(C)c1=O`, the Ki was 50 nM on Adenosine receptor A1 and 130 nM at Adenosine receptor A2a [1]. In addition, the solubility in series [3] is 5 µM (≈ 1.36 µg/mL). On to `Cc1nc2c(=O)n(C)c(=O)n(C)c2[nH]1`, for which the Ki at Adenosine receptor A1 amounted to 6500 nM; on Adenosine receptor A2a [1], 14000 nM. The corresponding values for `Cn1c(=O)c2[nH]c(-c3cccc(N)c3)nc2n(C)c1=O` are 1100 nM and 900 nM. At Adenosine receptor A1, `CCCn1c(=O)c2nc(-c3ccc(C(=O)O)cc3)[nH]c2n(CCC)c1=O` came in with a Ki of 170 nM.

Consider `Cn1c(=O)c2[nH]c(-c3cccc(C(=O)O)c3)nc2n(C)c1=O`, for which the figures for the Ki on Adenosine receptor A1 and on Adenosine receptor A2a [1] were 32000 nM and 15000 nM, respectively. The molecule `CCCn1c(=O)c2nc[nH]c2n(CCC)c1=O` yielded an inhibition constant Ki at Adenosine receptor A1 of 700 nM. With `CC(C)CCn1c(=O)c2[nH]c(-c3ccc(S(=O)(=O)O)cc3)nc2n(CC(C)C)c1=O`, the results for the inhibition constant Ki at Adenosine receptor A1 and on Adenosine receptor A2a [1] were 3500 nM and 7000 nM, respectively. The corresponding values for `Cn1c(=O)c2nc(-c3ccccc3C(=O)O)[nH]c2n(C)c1=O` are above 50000 nM and above 30000 nM. Consider `Cn1c(=O)c2[nH]c(-c3ccc(C(=O)O)cc3)nc2n(C)c1=O`, for which the Ki on Adenosine receptor A2a [1] came out at 2500 nM. Besides, the solubility in series [3] is 90 µM (≈ 27 µg/mL). Turning to `CCCn1c(=O)c2[nH]c(-c3ccc(Cl)cc3N)nc2n(CCC)c1=O`, the Ki at Adenosine receptor A1 is 2.5 nM; at Adenosine receptor A2a [1] it was 1000 nM.
